PMC7316778 (Nature Communications, 2020)
Where “and” joins values, the source holds several entries; their conditions need not be identical. Identical values can stand only once. Like-named read-outs stand apart in the source and are kept apart here.

Key:
AURKC (Aurora C) = target: T1, AURKC (Aurora C) (Homo sapiens, UniProt Q9UQB9); test: SelectScreen kinase assay
T1 sequence (Q9UQB9 1-309): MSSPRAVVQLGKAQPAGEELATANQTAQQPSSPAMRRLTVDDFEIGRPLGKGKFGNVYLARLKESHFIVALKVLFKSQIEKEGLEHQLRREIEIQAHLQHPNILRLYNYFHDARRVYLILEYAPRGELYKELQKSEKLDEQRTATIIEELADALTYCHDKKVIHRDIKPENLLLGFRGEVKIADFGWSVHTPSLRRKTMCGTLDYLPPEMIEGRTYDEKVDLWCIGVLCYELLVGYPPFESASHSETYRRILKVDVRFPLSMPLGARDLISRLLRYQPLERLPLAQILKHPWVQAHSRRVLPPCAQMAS
Protocol: (§1) Selectivity profiling assays were performed by the Invitrogen SelectScreen™ Services. […] The concentration of ATP was selected to be equal to the KM, unless indicated otherwise.

ADRBK2 (GRK3) = target: T2, ADRBK2 (GRK3) (Homo sapiens, UniProt P35626); test: SelectScreen kinase assay
T2 sequence (P35626 1-688): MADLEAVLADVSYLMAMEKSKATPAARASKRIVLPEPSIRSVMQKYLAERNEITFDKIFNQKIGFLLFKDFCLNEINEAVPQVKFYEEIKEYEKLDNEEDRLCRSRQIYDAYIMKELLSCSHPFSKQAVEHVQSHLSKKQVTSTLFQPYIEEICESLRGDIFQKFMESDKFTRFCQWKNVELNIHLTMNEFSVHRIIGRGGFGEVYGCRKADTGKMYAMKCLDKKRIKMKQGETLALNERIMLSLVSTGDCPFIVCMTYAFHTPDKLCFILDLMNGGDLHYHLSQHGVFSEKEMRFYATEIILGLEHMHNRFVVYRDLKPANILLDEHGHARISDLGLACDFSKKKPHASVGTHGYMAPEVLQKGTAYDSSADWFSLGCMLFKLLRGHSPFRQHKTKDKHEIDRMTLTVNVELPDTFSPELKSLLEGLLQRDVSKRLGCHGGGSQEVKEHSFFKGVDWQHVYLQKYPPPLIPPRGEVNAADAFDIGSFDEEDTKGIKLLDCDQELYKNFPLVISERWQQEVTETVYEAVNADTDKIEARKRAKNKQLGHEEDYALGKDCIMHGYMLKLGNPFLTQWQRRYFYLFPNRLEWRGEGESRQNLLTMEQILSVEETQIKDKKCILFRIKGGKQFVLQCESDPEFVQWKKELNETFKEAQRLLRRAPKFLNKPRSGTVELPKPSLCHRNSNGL
Protocol: as §1

CAMK2G (CaMKII gamma) = CAMK2G (CaMKII gamma) (Homo sapiens, UniProt Q13555); test: SelectScreen kinase assay
Protocol: as §1

STK22D (TSSK1) = STK22D (TSSK1) (Homo sapiens, UniProt Q9BXA7); test: SelectScreen kinase assay; conditions: 1 h, 1 μM WEL028, 1 h preincubation
Protocol: as §1

ACVR2B = ACVR2B (Homo sapiens, UniProt Q13705); test: SelectScreen kinase assay
Protocol: as §1

SRC = SRC (Homo sapiens, UniProt P12931); test: SelectScreen kinase assay
Protocol: as §1

PRKG1 = PRKG1 (Homo sapiens, UniProt Q13976); test: SelectScreen kinase assay
Protocol: as §1

CDC7/DBF4 = CDC7/DBF4 (Homo sapiens, UniProt O00311); test: SelectScreen kinase assay
Protocol: as §1

STK22B (TSSK2) = target: T3, STK22B (TSSK2) (Homo sapiens, UniProt Q96PF2); test: SelectScreen kinase assay
T3 sequence (Q96PF2 1-358): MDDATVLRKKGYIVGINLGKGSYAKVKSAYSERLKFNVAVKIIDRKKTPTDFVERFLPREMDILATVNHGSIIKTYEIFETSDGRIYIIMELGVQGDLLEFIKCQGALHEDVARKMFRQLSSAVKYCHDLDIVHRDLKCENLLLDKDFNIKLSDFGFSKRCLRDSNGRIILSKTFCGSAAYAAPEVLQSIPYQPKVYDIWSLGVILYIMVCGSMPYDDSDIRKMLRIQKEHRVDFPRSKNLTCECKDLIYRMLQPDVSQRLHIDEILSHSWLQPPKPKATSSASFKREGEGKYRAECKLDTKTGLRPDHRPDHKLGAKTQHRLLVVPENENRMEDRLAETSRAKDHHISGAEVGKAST
Protocol: as §1

FER^WT = FER^WT (Homo sapiens, UniProt P16591); test: In vitro TR-FRET kinase assay
EEF2K = target: T4, EEF2K (Homo sapiens, UniProt O00418); test: SelectScreen kinase assay
T4 sequence (O00418 1-725): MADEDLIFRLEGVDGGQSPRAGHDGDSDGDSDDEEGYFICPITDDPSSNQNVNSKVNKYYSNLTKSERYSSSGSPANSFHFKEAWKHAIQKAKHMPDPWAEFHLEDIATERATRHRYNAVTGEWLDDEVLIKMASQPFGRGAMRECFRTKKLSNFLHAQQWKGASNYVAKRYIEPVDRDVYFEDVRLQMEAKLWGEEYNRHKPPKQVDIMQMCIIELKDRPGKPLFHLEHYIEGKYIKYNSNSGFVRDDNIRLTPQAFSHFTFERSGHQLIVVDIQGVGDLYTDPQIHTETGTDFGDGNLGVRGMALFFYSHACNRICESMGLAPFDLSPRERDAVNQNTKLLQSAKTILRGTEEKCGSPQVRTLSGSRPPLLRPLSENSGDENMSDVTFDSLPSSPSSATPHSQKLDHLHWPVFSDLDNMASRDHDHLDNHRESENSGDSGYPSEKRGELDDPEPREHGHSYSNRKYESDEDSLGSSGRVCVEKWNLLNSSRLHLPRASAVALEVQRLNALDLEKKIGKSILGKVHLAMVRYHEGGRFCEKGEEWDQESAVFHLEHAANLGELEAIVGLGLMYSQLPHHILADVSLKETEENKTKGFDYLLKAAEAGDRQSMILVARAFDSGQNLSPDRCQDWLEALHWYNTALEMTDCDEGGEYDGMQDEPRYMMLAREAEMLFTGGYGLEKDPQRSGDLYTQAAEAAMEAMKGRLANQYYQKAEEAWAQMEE
Protocol: as §1

[1] = 1 h, 1 μM WEL028, 1 h preincubation
[2] = 1 µM, ZLYTE, ATP Km app, listed as WEL028, 1 µM
[3] = read-out: Inhibition at 1 µM (%), 1 µM, ZLYTE, ATP Km app

PRKG1, sequence (Q13976 whole entry): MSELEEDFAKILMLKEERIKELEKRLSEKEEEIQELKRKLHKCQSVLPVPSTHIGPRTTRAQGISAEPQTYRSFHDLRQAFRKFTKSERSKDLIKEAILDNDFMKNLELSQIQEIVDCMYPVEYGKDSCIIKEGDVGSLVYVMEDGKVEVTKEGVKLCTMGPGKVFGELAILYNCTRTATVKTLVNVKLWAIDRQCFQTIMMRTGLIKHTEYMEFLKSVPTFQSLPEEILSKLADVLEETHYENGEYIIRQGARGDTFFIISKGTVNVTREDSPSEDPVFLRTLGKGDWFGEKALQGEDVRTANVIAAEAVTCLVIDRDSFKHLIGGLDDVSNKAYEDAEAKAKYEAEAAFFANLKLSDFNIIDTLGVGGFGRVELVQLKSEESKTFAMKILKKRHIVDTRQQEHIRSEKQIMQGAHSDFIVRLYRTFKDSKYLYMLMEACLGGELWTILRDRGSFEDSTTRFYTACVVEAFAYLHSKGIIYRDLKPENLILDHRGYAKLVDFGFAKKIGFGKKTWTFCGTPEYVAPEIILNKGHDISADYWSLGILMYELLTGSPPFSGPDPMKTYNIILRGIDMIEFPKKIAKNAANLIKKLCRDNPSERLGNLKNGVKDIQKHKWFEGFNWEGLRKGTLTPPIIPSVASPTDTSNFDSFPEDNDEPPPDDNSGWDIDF
SRC, sequence (P12931 whole entry): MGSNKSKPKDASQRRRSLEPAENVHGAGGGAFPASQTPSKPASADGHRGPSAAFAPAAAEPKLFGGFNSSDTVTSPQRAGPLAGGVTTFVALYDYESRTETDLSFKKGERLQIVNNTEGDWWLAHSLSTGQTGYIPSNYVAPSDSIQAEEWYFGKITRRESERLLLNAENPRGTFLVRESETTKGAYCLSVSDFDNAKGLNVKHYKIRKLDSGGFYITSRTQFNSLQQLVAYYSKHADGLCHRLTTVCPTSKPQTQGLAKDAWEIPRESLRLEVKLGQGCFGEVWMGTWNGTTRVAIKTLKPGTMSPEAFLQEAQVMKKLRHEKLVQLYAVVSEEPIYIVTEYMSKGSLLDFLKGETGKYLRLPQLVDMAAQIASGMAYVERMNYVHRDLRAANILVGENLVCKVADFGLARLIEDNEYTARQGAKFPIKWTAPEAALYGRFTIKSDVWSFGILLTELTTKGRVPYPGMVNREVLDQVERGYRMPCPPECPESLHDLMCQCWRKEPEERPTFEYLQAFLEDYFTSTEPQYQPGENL
ACVR2B, sequence (Q13705 19-512): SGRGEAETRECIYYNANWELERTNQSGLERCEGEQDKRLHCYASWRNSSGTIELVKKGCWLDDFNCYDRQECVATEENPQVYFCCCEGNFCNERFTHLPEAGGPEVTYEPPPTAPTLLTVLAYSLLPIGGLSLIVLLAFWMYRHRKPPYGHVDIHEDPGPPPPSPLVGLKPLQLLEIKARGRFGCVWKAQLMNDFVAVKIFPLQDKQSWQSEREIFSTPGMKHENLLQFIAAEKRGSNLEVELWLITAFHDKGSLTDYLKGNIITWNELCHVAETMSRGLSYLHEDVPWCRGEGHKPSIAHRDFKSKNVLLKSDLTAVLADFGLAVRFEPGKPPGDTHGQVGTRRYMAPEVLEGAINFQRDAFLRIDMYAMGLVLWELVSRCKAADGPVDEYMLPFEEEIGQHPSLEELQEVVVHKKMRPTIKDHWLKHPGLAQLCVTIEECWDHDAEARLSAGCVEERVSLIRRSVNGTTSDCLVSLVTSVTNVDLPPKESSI
CDC7/DBF4, sequence (O00311 whole entry): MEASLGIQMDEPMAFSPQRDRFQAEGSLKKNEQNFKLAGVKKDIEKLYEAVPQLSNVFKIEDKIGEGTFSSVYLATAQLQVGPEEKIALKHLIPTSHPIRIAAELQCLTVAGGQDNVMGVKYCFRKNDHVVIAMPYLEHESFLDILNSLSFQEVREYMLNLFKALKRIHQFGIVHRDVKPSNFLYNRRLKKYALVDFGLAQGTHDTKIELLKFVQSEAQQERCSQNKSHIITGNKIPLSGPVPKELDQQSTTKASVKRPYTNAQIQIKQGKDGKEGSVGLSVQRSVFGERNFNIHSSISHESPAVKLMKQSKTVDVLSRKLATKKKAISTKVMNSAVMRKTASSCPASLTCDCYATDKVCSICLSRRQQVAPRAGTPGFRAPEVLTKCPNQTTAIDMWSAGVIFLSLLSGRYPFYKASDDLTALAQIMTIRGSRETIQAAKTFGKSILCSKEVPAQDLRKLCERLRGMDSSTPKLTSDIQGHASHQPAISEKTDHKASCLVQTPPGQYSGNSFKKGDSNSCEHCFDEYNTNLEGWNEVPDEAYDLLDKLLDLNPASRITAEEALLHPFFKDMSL
CDC7/DBF4, sequence (Q9UBU7 whole entry partner): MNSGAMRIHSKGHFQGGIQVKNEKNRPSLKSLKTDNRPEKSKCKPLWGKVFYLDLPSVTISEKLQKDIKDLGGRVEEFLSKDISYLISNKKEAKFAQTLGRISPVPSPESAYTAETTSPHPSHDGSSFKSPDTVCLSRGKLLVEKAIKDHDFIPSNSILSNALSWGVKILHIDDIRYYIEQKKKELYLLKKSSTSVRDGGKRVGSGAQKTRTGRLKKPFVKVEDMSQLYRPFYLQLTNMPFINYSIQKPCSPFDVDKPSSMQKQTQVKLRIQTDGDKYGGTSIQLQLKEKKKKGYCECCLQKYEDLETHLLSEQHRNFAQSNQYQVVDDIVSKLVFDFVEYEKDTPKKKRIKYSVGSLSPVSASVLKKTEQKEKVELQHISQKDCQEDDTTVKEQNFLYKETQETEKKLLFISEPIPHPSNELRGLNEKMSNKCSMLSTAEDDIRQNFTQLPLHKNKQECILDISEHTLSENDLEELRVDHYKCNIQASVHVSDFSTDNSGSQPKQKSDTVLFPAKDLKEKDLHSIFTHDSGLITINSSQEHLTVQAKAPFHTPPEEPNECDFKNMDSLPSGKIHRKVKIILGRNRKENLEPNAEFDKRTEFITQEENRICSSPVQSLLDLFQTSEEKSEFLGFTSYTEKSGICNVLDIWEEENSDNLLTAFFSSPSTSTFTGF
CAMK2G (CaMKII gamma), sequence (Q13555 whole entry): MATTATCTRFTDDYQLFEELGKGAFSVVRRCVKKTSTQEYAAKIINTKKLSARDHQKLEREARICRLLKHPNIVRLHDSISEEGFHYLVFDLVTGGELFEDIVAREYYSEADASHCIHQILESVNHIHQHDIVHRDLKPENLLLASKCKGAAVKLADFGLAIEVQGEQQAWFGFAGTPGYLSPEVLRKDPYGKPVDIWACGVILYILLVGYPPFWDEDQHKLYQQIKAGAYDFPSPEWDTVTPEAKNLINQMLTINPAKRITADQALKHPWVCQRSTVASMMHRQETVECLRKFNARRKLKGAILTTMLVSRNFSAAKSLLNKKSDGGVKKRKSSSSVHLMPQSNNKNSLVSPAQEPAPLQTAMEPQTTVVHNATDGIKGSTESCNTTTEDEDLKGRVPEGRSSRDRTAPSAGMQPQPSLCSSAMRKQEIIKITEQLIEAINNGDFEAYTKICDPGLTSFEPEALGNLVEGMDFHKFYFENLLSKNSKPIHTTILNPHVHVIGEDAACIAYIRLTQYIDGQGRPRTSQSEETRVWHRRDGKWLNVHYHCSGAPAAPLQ
FER^WT, sequence (P16591 448-820): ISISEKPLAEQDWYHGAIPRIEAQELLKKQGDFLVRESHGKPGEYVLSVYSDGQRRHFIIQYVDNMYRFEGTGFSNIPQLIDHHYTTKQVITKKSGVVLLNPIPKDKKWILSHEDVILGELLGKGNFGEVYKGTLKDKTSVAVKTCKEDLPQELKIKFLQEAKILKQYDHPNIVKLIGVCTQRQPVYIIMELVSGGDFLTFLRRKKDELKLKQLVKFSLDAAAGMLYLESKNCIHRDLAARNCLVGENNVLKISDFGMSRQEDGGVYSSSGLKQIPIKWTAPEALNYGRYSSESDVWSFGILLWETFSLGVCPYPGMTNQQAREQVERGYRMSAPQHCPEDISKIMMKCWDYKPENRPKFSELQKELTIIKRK
STK22D (TSSK1), sequence (Q9BXA7 whole entry): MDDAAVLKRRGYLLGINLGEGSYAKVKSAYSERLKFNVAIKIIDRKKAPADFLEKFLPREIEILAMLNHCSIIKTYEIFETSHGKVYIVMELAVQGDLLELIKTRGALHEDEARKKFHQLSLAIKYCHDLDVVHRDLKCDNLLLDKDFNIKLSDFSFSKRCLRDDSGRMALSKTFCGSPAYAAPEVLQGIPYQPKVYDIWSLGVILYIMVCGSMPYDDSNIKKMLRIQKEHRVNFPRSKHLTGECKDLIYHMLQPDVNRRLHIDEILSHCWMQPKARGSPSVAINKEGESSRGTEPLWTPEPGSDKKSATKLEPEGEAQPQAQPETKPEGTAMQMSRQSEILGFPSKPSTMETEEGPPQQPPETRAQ

C#CCOc1ccc(Nc2ncc(Cl)c(Nc3ccccc3NC(=O)C=C)n2)c(OC)c1 [Compound 6]
inhibition at 1 µM (AURKC (Aurora C); [1]): 37%
Inhibition at 1 µM (%) (AURKC (Aurora C); AURKC (Aurora C), 1 µM, ZLYTE, ATP Km app, listed as WEL028, 1 µM): 41%
inhibition at 1 µM (AURKC (Aurora C); read-out: Inhibition at 1 µM (%), AURKC (Aurora C), 1 µM, ZLYTE, ATP Km app): 33%
inhibition at 1 µM (ADRBK2 (GRK3); [1]): 7%
Inhibition at 1 µM (%) (ADRBK2 (GRK3); ADRBK2 (GRK3), 1 µM, ZLYTE, ATP Km app, listed as WEL028, 1 µM): 8%
inhibition at 1 µM (ADRBK2 (GRK3); read-out: Inhibition at 1 µM (%), ADRBK2 (GRK3), 1 µM, ZLYTE, ATP Km app): 5%
inhibition at 1 µM (CAMK2G (CaMKII gamma); [1]): 3%
Inhibition at 1 µM (%) (CAMK2G (CaMKII gamma); CAMK2G (CaMKII gamma), 1 µM, LanthaScreen Binding): 13%
inhibition at 1 µM (STK22D (TSSK1)): 19%
Inhibition (%) (ACVR2B; 1 μM WEL028, 1 h preincubation): 9%
Inhibition at 1 µM (%) (ACVR2B; ACVR2B, 1 µM, LanthaScreen Binding, listed as WEL028, 1 µM): 7%
inhibition at 1 µM (ACVR2B; read-out: Inhibition at 1 µM (%), ACVR2B, 1 µM, LanthaScreen Binding): 12%
Inhibition at 1 µM (%) (SRC; [2]): 8%
inhibition at 1 µM (SRC; [1]): 9%
inhibition at 1 µM (SRC; [3]): 10%
Inhibition at 1 µM (%) (PRKG1; [2]): -6% and 0%
inhibition at 1 µM (PRKG1; [1]): -3%
inhibition at 1 µM (CDC7/DBF4; [1]): 3%
Inhibition at 1 µM (%) (CDC7/DBF4; CDC7/DBF4, 1 µM, LanthaScreen Binding, listed as WEL028, 1 µM): 6% and 1%
Inhibition at 1 µM (%) (STK22B (TSSK2); [2]): 17%
inhibition at 1 µM (STK22B (TSSK2); [1]): 18%
inhibition at 1 µM (STK22B (TSSK2); [3]): 18%
IC50 (FER^WT): 501 nM
inhibition at 1 µM (EEF2K; [1]): 9%
Inhibition at 1 µM (%) (EEF2K; EEF2K, 1 µM, ZLYTE, ATP Km app, listed as WEL028, 1 µM): 7%
inhibition at 1 µM (EEF2K; read-out: Inhibition at 1 µM (%), EEF2K, 1 µM, ZLYTE, ATP Km app): 12%
